Assay [1] addresses amyloid β (Aβ) in cerebral organoids (Homo sapiens, UniProt P05067). The experiment in a line: Aβ aggregation/deposition suppression in cerebral organoids (QD-Aβ40/Aβ42, fluorescence microscopy). Format: cell-based. The settings on record: Example 3, 24 hours after addition. Here is the method: The end of a 1000-μl tip was cut off with sterilized scissors, and the organoids produced in Example 1 that had grown to a diameter of 1 mm or more were aspirated without disrupting them, and transferred to a U-bottom 96-well plate. […]
The next day, all of the culture supernatant was removed without aspirating the organoid, and 150 μl of fresh NbM medium was added. The cultured organoids were then observed and photographed under a fluorescence microscope.
Using a fluorescence microscope (BZ-X800 manufactured by KEYENCE CORPORATION), the cultured organoids in Example 2 were photographed in a bright field at a high resolution with an exposure time of 1/500 s to 1/2000 s, or at a high sensitivity with an exposure time of 1/2000 s to 1/5000 s, with Z stacks with a pitch of 20 μm. […] Subsequently, to observe the deposition of quantum dot-modified amyloid β in the cultured organoid, red fluorescence was observed using a TRITC lens at a high sensitivity with an exposure time of ¼ s to 1/8.5 s, and images were obtained according to the procedure described above.
Each of the images obtained above was analyzed as follows. […] The threshold of the loaded bright-field image was set to 200, and the organoid area (organoid surface area) was calculated. […]
The black balance level of image processing was adjusted for the fluorescent images of various tests. First, the negative control image was read out. […]

A further assay deals with Aβ. The settings on record: cited from earlier work.

The values below come from US20260364134A1, “AGENT FOR SUPPRESSING AMYLOID BETA AGGREGATION/DEPOSITION AND AGENT FOR SUPPRESSING COGNITIVE FUNCTION DECLINE/IMPROVING COGNITIVE FUNCTION IN A SUBJECT” (KANEKA CORPORATION, priority 2023, published 2026).

SMILES strings stand for the structures.

amyloid β (Aβ) in cerebral organoids, sequence (P05067 672-713): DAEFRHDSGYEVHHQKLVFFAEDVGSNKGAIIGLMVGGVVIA

Take `O=C(/C=C/c1ccc(O)c(O)c1)O[C@H](Cc1ccc(O)c(O)c1)C(=O)O` [rosmarinic acid, Rosmarinic acid]: the “Effect of suppressing Aβ aggregation/deposition in cerebral organoids (in words)” value in assay [1] is “not a drug that has an effect of suppressing Aβ aggregation/deposition in cerebral organoids”. In assay [1] (rosmarinic acid final 50 μM, QD-Aβ40 30 nM, Aβ42 10 μM), the “Aβ aggregation/deposition suppression rate in cerebral organoids” value is 3.9%. For the same compound, the “effect of suppressing Aβ aggregation (known)” value with Aβ is “known to have an effect of suppressing Aβ aggregation”.
